Data as given in US9771334B2, “Triketone compound and preparation method and use thereof” (SHANDONG CYNDA CHEMICAL CO., LTD., priority 2013, dated 2017).

Experiments:
Assay type in all cases: in vivo
maize = experiment: Crop safety test (pot culture method); settings: plants with about 4-5 leaves, investigated 15 days later
Procedure, shortened: (§1)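 Crops grown in pots of garden soil/seedling matrix (1:2) to 4-5 leaves, then sprayed by automatic spray tower with compound in DMF diluted in water with 0.1% tween-80, at 75 g/ha (0.1 g/L) or 150 g/ha (0.2 g/L). Kept in greenhouse; assessed 15 days later.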

wheat = experiment: Crop safety test (pot culture method); settings: plants with about 4-5 leaves, investigated 15 days later
Procedure, shortened: as §1

eclipta prostrata = experiment: Herbicidal activity, pot culture method (primary and secondary screening test); settings: sprayed at 3-leaf stage; for inhibition ratio, Eclipta prostrata: investigated 15 days later; for herbicidal activity inhibition ratio (%), Eclipta prostrata: primary screening, pot culture, 150 g/ha, result 15 days later
Procedure, shortened: (§2)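 Inhibition ratio (%) was scored 15 days after post-emergence spraying of 3-leaf-stage weeds grown in pots of soil:seedling matrix (1:2). Dose was 150 g/ha from a 0.2 g/L DMF/water solution applied by spray tower. The secondary screening used the same method at a reduced dose.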

echinochloa crusgalli = experiment: as above; settings: sprayed at 3-leaf stage; for inhibition ratio, Echinochloa crusgalli: investigated 15 days later; for herbicidal activity inhibition ratio (%), Echinochloa crusgalli: primary screening, pot culture, 150 g/ha, result 15 days later
Procedure, shortened: as §2

digitaria sanguinalis = experiment: as above; settings: sprayed at 3-leaf stage; for inhibition ratio, Digitaria sanguinalis: investigated 15 days later; for herbicidal activity inhibition ratio (%), Digitaria sanguinalis: primary screening, pot culture, 150 g/ha, result 15 days later
Procedure, shortened: as §2

abutilon theophrasti = experiment: as above; settings: sprayed at 3-leaf stage; for inhibition ratio, Abutilon theophrasti: investigated 15 days later; for herbicidal activity inhibition ratio (%), Abutilon theophrasti: primary screening, pot culture, 150 g/ha, result 15 days later
Procedure, shortened: as §2

setaria viridis = experiment: as above; settings: for inhibition ratio, Setaria viridis / herbicidal activity inhibition ratio (%), Setaria viridis: sprayed at 3-leaf stage; for inhibition ratio, Setaria viridis: investigated 15 days later; for herbicidal activity inhibition ratio (%), Setaria viridis: primary screening, pot culture, 150 g/ha, result 15 days later
Procedure, shortened: as §2

amaranthus retroflexus = experiment: as above; settings: sprayed at 3-leaf stage; for inhibition ratio, Amaranthus retroflexus: investigated 15 days later; for herbicidal activity inhibition ratio (%), Amaranthus retroflexus: primary screening, pot culture, 150 g/ha, result 15 days later
Procedure, shortened: as §2

| Compound | inhibition ratio, Maize (crop safety) (maize; dose 75 g/ha) | inhibition ratio, Maize (crop safety) (maize; dose 150 g/ha) | inhibition ratio, Wheat (crop safety) (wheat; dose 75 g/ha) | inhibition ratio, Wheat (crop safety) (wheat; dose 150 g/ha) | inhibition ratio, Eclipta prostrata (eclipta prostrata; dose 37.5 g/ha) | inhibition ratio, Eclipta prostrata (eclipta prostrata; dose 75 g/ha) | herbicidal activity inhibition ratio (%), Eclipta prostrata (eclipta prostrata) | inhibition ratio, Echinochloa crusgalli (echinochloa crusgalli; dose 37.5 g/ha) | inhibition ratio, Echinochloa crusgalli (echinochloa crusgalli; dose 75 g/ha) | herbicidal activity inhibition ratio (%), Echinochloa crusgalli (echinochloa crusgalli) | inhibition ratio, Digitaria sanguinalis (digitaria sanguinalis; dose 37.5 g/ha) | inhibition ratio, Digitaria sanguinalis (digitaria sanguinalis; dose 75 g/ha) | herbicidal activity inhibition ratio (%), Digitaria sanguinalis (digitaria sanguinalis) | inhibition ratio, Abutilon theophrasti (abutilon theophrasti; dose 37.5 g/ha) | inhibition ratio, Abutilon theophrasti (abutilon theophrasti; dose 75 g/ha) | herbicidal activity inhibition ratio (%), Abutilon theophrasti (abutilon theophrasti) | inhibition ratio, Setaria viridis (setaria viridis; dose 37.5 g/ha) | inhibition ratio, Setaria viridis (setaria viridis; dose 75 g/ha) | inhibition ratio, Amaranthus retroflexus (amaranthus retroflexus; dose 37.5 g/ha) | inhibition ratio, Amaranthus retroflexus (amaranthus retroflexus; dose 75 g/ha) | further results |
| --- | --- | --- | --- | --- | --- | --- | --- | --- | --- | --- | --- | --- | --- | --- | --- | --- | --- | --- | --- | --- | --- |
| CCn1c(=O)n(-c2ccccc2C)c(=O)c2cc(C(=O)C3=C(O)CC(C)CC3=O)ccc21 (stereo not shown) [Compound 70] | 0% | 15% | 0% | 10% | 60% | 78% | 100% | 40% | 55% | 100% | 80% | 75% | 90% | 50% | 73% | 100% | 83% | 93% | 50% | 70% | herbicidal activity inhibition ratio (%), Setaria viridis (setaria viridis): 100%; herbicidal activity inhibition ratio (%), Amaranthus retroflexus (amaranthus retroflexus): 98% |
| Cc1c(C(=O)C2=C(O)CC(C)(C)CC2=O)ccc2c1c(=O)n(-c1ccccc1C(F)(F)F)c(=O)n2C [Compound 91] | 0% | 10% | 0% | 10% | 80% | 93% | 100% | 65% | 90% | 100% | 70% | 90% | 100% | 85% | 93% | 100% | 100% | 100% | 60% | 80% | herbicidal activity inhibition ratio (%), Setaria viridis (setaria viridis): 100%; herbicidal activity inhibition ratio (%), Amaranthus retroflexus (amaranthus retroflexus): 100% |
| CS(=O)(=O)c1ccc(C(=O)C2C(=O)CCCC2=O)c([N+](=O)[O-])c1 [Mesotrione, mesotrione, reference compound] | 7% | 15% | 10% | 40% | 75% | 85% | – | 50% | 70% | – | 40% | 70% | – | 100% | 100% | – | 0% | 0% | 70% | 75% | prevention and control of setaria viridis (in words) (setaria viridis; secondary screening, 37.5 and 75 g/ha): cannot be prevented and controlled |
